Data reported in ChEMBL document CHEMBL4411309, “Discovery of 2-substituted-N-(3-(3,4-dihydroisoquinolin-2(1H)-yl)-2-hydroxypropyl)-1,2,3,4-tetrahydroisoquinoline-6-carboxamide as potent and selective protein arginine methyltransferases 5 inhibitors: Design, synthesis and biological evaluation” (Eur J Med Chem, 2019).

How the values were obtained:
MV4-11 [1] = assay: Antiproliferative activity against human MV4-11 cells supplemented with fresh medium containing compound every 4 days measured on day 12 by Celltiter-glo luminescent cell viability assay; format: functional
PRMT5/MEP50 complex = PRMT5/MEP50 complex (Homo sapiens, UniProt O14744); assay: Inhibition of recombinant human N-terminal FLAG-tagged PRMT5 (2 to end residues)/human N-terminal His-tagged MEP50 (2 to end residues) expressed in HEK293F cells using H4 peptide as substrate preincubated for 15 mins followed by substrate and [3H]SAM addition and measured after 1 hr by scintillation counting method
PRMT5/MEP50 complex, sequence (O14744 whole entry): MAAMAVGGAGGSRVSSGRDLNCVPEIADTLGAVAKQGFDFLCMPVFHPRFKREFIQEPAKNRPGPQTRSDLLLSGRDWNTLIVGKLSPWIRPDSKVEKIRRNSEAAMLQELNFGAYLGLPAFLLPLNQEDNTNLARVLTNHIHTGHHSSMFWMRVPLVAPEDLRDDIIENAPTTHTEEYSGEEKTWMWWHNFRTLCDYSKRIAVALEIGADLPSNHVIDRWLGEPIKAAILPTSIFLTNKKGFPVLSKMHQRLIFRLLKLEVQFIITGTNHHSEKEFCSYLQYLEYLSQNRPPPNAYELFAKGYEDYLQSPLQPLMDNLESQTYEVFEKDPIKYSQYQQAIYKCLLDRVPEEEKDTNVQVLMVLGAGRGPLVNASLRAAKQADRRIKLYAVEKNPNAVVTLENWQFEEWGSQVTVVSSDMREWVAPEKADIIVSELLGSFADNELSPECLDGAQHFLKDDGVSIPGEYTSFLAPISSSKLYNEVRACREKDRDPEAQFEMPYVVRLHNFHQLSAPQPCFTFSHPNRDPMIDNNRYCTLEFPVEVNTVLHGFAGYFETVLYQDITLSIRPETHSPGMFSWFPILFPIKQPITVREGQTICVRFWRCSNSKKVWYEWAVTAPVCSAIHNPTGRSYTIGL
PRMT5/MEP50 complex, sequence (Q9BQA1 whole entry, further chain): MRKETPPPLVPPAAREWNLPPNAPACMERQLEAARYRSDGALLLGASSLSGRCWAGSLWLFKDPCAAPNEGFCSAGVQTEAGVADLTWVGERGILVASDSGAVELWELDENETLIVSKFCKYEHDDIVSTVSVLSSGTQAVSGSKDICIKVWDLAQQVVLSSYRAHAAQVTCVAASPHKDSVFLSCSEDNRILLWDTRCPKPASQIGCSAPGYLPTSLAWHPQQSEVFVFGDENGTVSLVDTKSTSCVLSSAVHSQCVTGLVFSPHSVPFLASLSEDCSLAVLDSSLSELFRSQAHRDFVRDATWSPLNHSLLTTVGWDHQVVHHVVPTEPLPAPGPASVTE

MV4-11 [2] = assay: Antiproliferative activity against human MV4-11 cells supplemented with fresh medium containing compound every 4 days measured on day 8 by Celltiter-glo luminescent cell viability assay; format: functional
[3] = Tmax in Sprague-Dawley rat at 10 mg/kg, po administered via gavage by LC-MS/MS analysis; format: ADME, organism-based; details: in vivo
[4] = AUC in Sprague-Dawley rat at 10 mg/kg, po administered via gavage by LC-MS/MS analysis; format: ADME, organism-based; details: in vivo
[5] = Cmax in Sprague-Dawley rat at 10 mg/kg, po administered via gavage by LC-MS/MS analysis; format: ADME, organism-based; parameters: dose 10 mg/kg, route oral; details: in vivo
[6] = Elimination half life in Sprague-Dawley rat at 10 mg/kg, po administered via gavage by LC-MS/MS analysis; format: ADME, organism-based; details: in vivo, read-out: beta t1/2 (converted)
[7] = target: Protein arginine N-methyltransferase 5 (Homo sapiens) (UniProt O14744); assay: Inhibition of PRMT5 in human MV411 cells assessed as reduction in SmD3 methylation after 4 days by Western blot analysis; format: cell-based
Protein arginine N-methyltransferase 5 (Homo sapiens), sequence (O14744 whole entry): as the sequence (O14744 whole entry) above

SMILES	GI50 (MV4-11 [1]) [nM]	IC50 (PRMT5/MEP50 complex) [nM]	GI50 (MV4-11 [2]) [nM]	also measured
Cc1c(C(=O)NCC(O)CN2CCc3ccccc3C2)sc2c1CN(C(=O)c1ccc(N(C)C)cc1)CC2 (stereo unspecified)	101	23	169	
CN(C)c1ccc(C(=O)N2Cc3ccc(C(=O)NCC(O)CN4CCc5ccccc5C4)cc3C2)cc1 (stereo unspecified)	92	17	128	
COc1ccc(C(=O)N2CCc3cc(C(=O)NC[C@@H](O)CN4CCc5ccccc5C4)ccc3C2)cc1	213	33	333	
O=C(NCC(O)CN1CCc2ccccc2C1)c1ccc2c(c1)CCN(C(=O)c1ccc(Br)cc1)C2 (stereo unspecified)	34	11	45	
CN1CCc2sc(C(=O)NCC(O)CN3CCc4ccccc4C3)cc2C1 (stereo unspecified)		475		
O=C(NCC(O)CN1CCc2ccccc2C1)c1cc2c(s1)CCN(C(=O)c1ccncc1)C2 (stereo unspecified)	110	45	253	
CN(C)c1ccc(C(=O)N2CCc3cc(C(=O)NCC(O)CN4CCc5ccccc5C4)ccc3C2)cc1 (stereo unspecified)	36	17	70	
O=C(NCC(O)CN1CCc2ccccc2C1)c1cc2c(s1)CCN(C(=O)c1ccc(Br)cc1)C2 (stereo unspecified)	66	18	181	
O=C(NCC(O)CN1CCc2ccccc2C1)c1cc2c(s1)CCN(C(=O)c1cccs1)C2 (stereo unspecified)	168	37	324	
CCCN1CCc2sc(C(=O)NCC(O)CN3CCc4ccccc4C3)cc2C1 (stereo unspecified)		1100		
O=C(NCC(O)CN1CCc2ccccc2C1)c1cc2c(s1)CCN(C(=O)Cc1ccccc1)C2 (stereo unspecified)	147	50	256	
O=C(NCC(O)CN1CCc2ccccc2C1)c1cc2c(s1)CCN(C(=O)c1ccc(C(F)(F)F)cc1)C2 (stereo unspecified)	134	49	204	
O=C(NCC(O)CN1CCc2ccccc2C1)c1cc2c(s1)CCN(C(=O)c1ccc(N3CCC3)cc1)C2 (stereo unspecified)		44		
O=C(NCC(O)CN1CCc2ccccc2C1)c1cc2c(s1)CCN(C(=O)c1cccc(F)c1)C2 (stereo unspecified)	166	31.5	314	
O=C(NCC(O)CN1CCc2ccccc2C1)c1cc2c(s1)CCN(C(=O)c1ccccc1F)C2 (stereo unspecified)	124	45	261	
CN1CCc2oc(C(=O)NCC(O)CN3CCc4ccccc4C3)cc2C1 (stereo unspecified)		1900		
O=C(NCC(O)CN1CCc2ccccc2C1)c1cc2c(s1)CCN(C(=O)c1ccc3ccccc3c1)C2 (stereo unspecified)	178	22	322	
O=C(NC[C@@H](O)CN1CCc2ccccc2C1)c1ccc2c(c1)CCN(C(=O)c1ccc(Br)cc1)C2	187	59	213	
O=C(NCC(O)CN1CCc2ccccc2C1)c1cc2c(s1)CCN(C1CCOCC1)C2 (stereo unspecified)		460		
O=C(NC[C@H](O)CN1CCc2ccccc2C1)c1cc(NC2COC2)ncn1	106		212	
COc1ccc(C(=O)N2CCc3cc(C(=O)NC[C@H](O)CN4CCc5ccccc5C4)ccc3C2)cc1.Cl				Tmax [3]: 25 min; AUC [4]: 94.6 ng·h/mL; Cmax [5]: 102 ng/mL; half-life [6]: 128 min
CN(C)c1ccc(C(=O)N2CCc3cc(C(=O)NC[C@H](O)CN4CCc5ccccc5C4)ccc3C2)cc1	53	11	75	
N#Cc1ccc(C(=O)N2CCc3sc(C(=O)NCC(O)CN4CCc5ccccc5C4)cc3C2)cc1 (stereo unspecified)	135	25	258	
CN1CCc2sc(C(=O)NCC(O)CN3CCc4ccccc4C3)nc2C1 (stereo unspecified)		1200		

SMILES	GI50 (MV4-11 [1]) [nM]	IC50 (PRMT5/MEP50 complex) [nM]	GI50 (MV4-11 [2]) [nM]	also measured
CN(C)c1ccc(C(=O)N2CCc3cc(C(=O)NC[C@H](O)CN4CCc5ccccc5C4)ccc3C2)cc1.Cl				Tmax [3]: 20 min; AUC [4]: 15.8 ng·h/mL; Cmax [5]: 14.3 ng/mL; half-life [6]: 56.7 min
O=C(NCC(O)CN1CCc2ccccc2C1)c1cc2c(s1)CCN(C(=O)c1ccc([N+](=O)[O-])cc1)C2 (stereo unspecified)	141	19	201	
O=C(NCC(O)CN1CCc2ccccc2C1)c1cc2c(s1)CCN(Cc1ccccc1)C2 (stereo unspecified)		240		
CC(C)(C)c1ccc(C(=O)N2CCc3sc(C(=O)NCC(O)CN4CCc5ccccc5C4)cc3C2)cc1 (stereo unspecified)	186	19	415	
CN1CCc2[nH]c(C(=O)NCC(O)CN3CCc4ccccc4C3)cc2C1 (stereo unspecified)		1900		
O=C(NCC(O)CN1CCc2ccccc2C1)c1cc2c(s1)CCN(C1CCCCC1)C2 (stereo unspecified)		130		
COc1ccc(C(=O)N2CCc3sc(C(=O)NCC(O)CN4CCc5ccccc5C4)cc3C2)cc1 (stereo unspecified)	85.6	20	216	
CC(c1ccccc1)N1CCc2sc(C(=O)NCC(O)CN3CCc4ccccc4C3)cc2C1 (stereo unspecified)	172	60	436	
O=C(NCC(O)CN1CCc2ccccc2C1)c1cc2c(s1)CCN(C(=O)Oc1ccccc1)C2 (stereo unspecified)		50		
O=C(NCC(O)CN1CCc2ccccc2C1)c1cc2c(s1)CCN(C(=O)c1ccccc1)C2 (stereo unspecified)	154	39	184	
O=C(NCC(O)CN1CCc2ccccc2C1)c1cc2c(s1)CCN(c1ccccc1)C2 (stereo unspecified)		260		
COc1ccc(C(=O)N2CCc3cc(C(=O)NC[C@H](O)CN4CCc5ccccc5C4)ccc3C2)cc1	23	13	37	
CN(C)c1ccc(C(=O)N2CCc3ccc(C(=O)NCC(O)CN4CCc5ccccc5C4)cc3C2)cc1 (stereo unspecified)		40		
COc1ccc(C(=O)N2CCc3cc(C(=O)NCC(O)CN4CCc5ccccc5C4)ccc3C2)cc1 (stereo unspecified)	32	23	35	
O=C(NCC(O)CN1CCc2ccccc2C1)c1cc2c(s1)CCN(C(=O)CCc1ccccc1)C2 (stereo unspecified)	185	47	304	
O=C(NC[C@H](O)CN1CCc2ccccc2C1)c1ccc2c(c1)CCN(C(=O)c1ccc(Br)cc1)C2				inhibition [7]: Dose-dependent effect
O=C(NCC(O)CN1CCc2ccccc2C1)c1cc2c(s1)CCN(S(=O)(=O)c1ccccc1)C2 (stereo unspecified)	209	91	375	
O=C(NCC(O)CN1CCc2ccccc2C1)c1cc2c(s1)CCN(C(=O)c1ccc(F)cc1)C2 (stereo unspecified)	126	30	199	
Cc1ccc(C(=O)N2CCc3sc(C(=O)NCC(O)CN4CCc5ccccc5C4)cc3C2)cc1 (stereo unspecified)	110	32.5	135	
O=C(NCC(O)CN1CCc2ccccc2C1)c1cc2c(s1)CCN(C(=O)c1ccco1)C2 (stereo unspecified)	160	25	239	
O=C(NCC(O)CN1CCc2ccccc2C1)c1cc2c(s1)CCN(C(=O)c1ccc(Cl)cc1)C2 (stereo unspecified)	162	23	147	
CC(=O)c1ccc(C(=O)N2CCc3sc(C(=O)NCC(O)CN4CCc5ccccc5C4)cc3C2)cc1 (stereo unspecified)	89	19	193	
CN(C)c1ccc(C(=O)N2CCc3sc(C(=O)NCC(O)CN4CCc5ccccc5C4)cc3C2)cc1 (stereo unspecified)	143	23	197	
